{"source": "patent EP0358766A1", "about": "“METHOD OF STERILIZING PLANT ANTHERS” (VSESOJUZNY NAUCHNO-ISSLEDOVATELSKY INST. SELSKOKHOZYAISTV. …, priority 1988, dated 1989)", "key": {"[1]": {"system": "Winterweizens Sorte Mironowskaya 808", "experiment": "Field test of gametocidal activity (anther sterilisation), winter wheat Mironowskaya 808", "assay_type": "in vivo, Weizen", "settings": "read-out: Prozentsatz der Sterilität %"}, "[2]": {"experiment": "Toxicity in animal test (LD50)", "parameters": "species or system Mäuse", "settings": "in vivo, mice stated only for 1,1,3-Tribrompropan, species not given for the others", "text": "Alle erfindungsgemäßen Polybromalkane, die als Sterilisationsmittel zur Verwendung kommen, waren auf die Toxizität im Tierversuch geprüft. Die Prüfergebnisse haben ergeben, daß die angegebenen Verbindungen von schwacher oder mittlerer Toxizität sind."}, "[3]": {"system": "Tritikale Ampfindiploid 206", "experiment": "Field test of gametocidal activity, triticale Amphidiploid 206", "assay_type": "in vivo", "settings": "period V, 1% aqueous emulsion, 6 kg/ha in 600 l water; for Prozentsatz des Ansetzens von Samen bei freier Bestäubung: control = 100", "text": "(§1) Die gametozide Aktivität der erfindungsgemäßen Sterilisationsmittel war in Feldversuchen in verschiedenen bodenklimatischen Zonen mit Teilstücken von 10 m^2 Größe in dreibis viermaliger Wiederholung festgestellt. Jedes Sterilisationsmittel wurde mindenstens 5 Jahre lang geprüft.\n(§2) Die Entwicklung der Perioden der Organogenese wird zytologisch überwacht. Die Behandlung von Pflanzen mit dem Sterilisationsmittel erfolgt am Anfang der fünften Periode der Organogenese nach Kupermann.\n(§3) Mit dem Ährenschieben verwirklicht man die Isolierung von Hauptähren und anderen Stockwerken in Pergametbeuteln. Bei Weizen und Tritikale werden Einzelisolatoren benutzt. Bei Roggen schließt man je 1 Ähre von […] verschiedenen nebeneinander befindlichen Pflanzen unter einen gemeinsamen Isolator ein. Bei Hirse wird jede Rispe getrennt isoliert. Der Sterilitätsprozentsatz (X) für Weizen, Roggen, Tritikale und Hirse wird nach der Formel [formula] ermittelt.\n(§4) Die Kornzahl in nicht isolierten Ähren von Kontrollpflanzen wird bedingt für 100 % Ansetzen bei freier Bestäubung angenommen.\n(§5) Um zuverlässige Angaben zu erhalten, verwendet man 20 bis 25 Isolatoren je Wiederholung für Weizen und Tritikale, 10 bis 15 Isolatoren jeder Wiederholung für Roggen und Hirse.\nPflanzen von Tritikale Ampfindiploid 206 werden in der V.Periode der Organogenese (nach Kupermann) mit einer 1%igen wäßrigen Emulsion von 1,1,3-Tribrompropan bzw. 1,2-Dibromheptan behandelt. Die Emulsion enthält 0,5 Masse% C12-C14--Kalziumalkylbenzolsulfonat und 0,01 Masse% Dimethylformamid. Der Verbrauch an Präparat beträgt 6 kg/ha bei 600 1 Wasserdurchsatz. Die Prüfergebnisse sind in der Tabelle 6 angegeben.\nDie gleichen Ergebnisse sind bei der Behandlung von Tritikale Amphidiploid 206 in der VI. Periode der Organogenese erhalten."}, "Sonnenblume Linie BK 119": {"system": "Sonnenblume Linie BK 119", "experiment": "Field test of pollen sterilisation, sunflower line BK 119", "assay_type": "in vivo", "text": "as §1, §2\nZur Kontrolle der chemischen Sterilisation des Sonnenblumenpollens werden für jede Verbindung 45 behandelte Pflanzen je Wiederholung benutzt, wobei 15 Pflanzen zwecks Selbstbestäubung des Blütenkörbchens isoliert werden, 15 Pflanzen mit einem Pollengemisch, gesammelt von 20 bis 25 behandelten isolierten Körbchen, bestäubt werden, und 15 Pflanzen für freie Bestäubung gelassen werden, damit das Ansetzen von Achänen mit dem Pollen der Vaterform kontrolliert worden kann.\nMan beurteilt die Pollensterilität von Pflanzen der Sonnenblume nach der Pollenfertilität und -keimfähigkeit, nach den morphologischen Besonderheiten von Spermien und nach der Fähigkeit von Achänen […] bei der Bestäubung der behandelten isolierten Pflanzen mit dem Pollen der unbehandelten väterlichen Form. Die Lebensfähigkeit der Eizelle wird nach der Samenbildung bei behandelten Pflanzen bei freier Bestäubung der väterlichen Form bestimmt.\nPflanzen der Sonnenblume Linie BK 119 werden mit einer 0,2%igen wäßrigen Emulsion von 1,1,3-Tribrompropan bzw. 1,2-Dibrompropan behandelt. Die Emulsion enthält 0,5 Masse% C12-C14 Natriumalkylbenzolsulfonat und 0,01 Masse% Dimethylformamid als Adjuvans. Der Verbrauch an Präparat beträgt 1,2 kg/ha bei 600 1 Wasserdurchsatz. Die Prüfergebnisse sind in der Tabelle 17 angegeben. Die gleichen Ergebnisse sind bei der Behandlung von Sonnenblume Linie BK in der VI. Periode der Organogenese erhalten.\nMan verführt analog den Beispielen 88-89. Als Sterilisationsmittel dient eine 0,1%ige wäßrige Emulsion von 1,2--Dibrom-3-chlorpropan. Der Verbrauch an Präparat beträgt 0,6 kg/ha bei 600 1 Wasserdurchsatz. Die Prüfergebnisse sind in der Tabelle 17 angegeben."}, "[4]": {"system": "tetraploidem Roggen Jubileinaya", "experiment": "Field test of gametocidal activity, tetraploid rye Jubileinaya", "assay_type": "in vivo", "settings": "period V, 1% aqueous emulsion, 8 kg/ha in 800 l water; for Prozentsatz des Ansetzens Samen bei freier Bestäubung: control = 100", "text": "as §1, §2, §3, §4, §5\nPflanzen von tetraploidem Roggen Jubileinaya werden in der V. Periode der Organogenese mit einer 1%igen wäßrigen Emulsion von 1,2,3-Tribrompropan, 1,2-Dibrompropan bzw. 1,2-Dibrom-3-chlorpropan behandelt. Die Emulsion enthält 0,5 Masse% C12-C14-Kalziumalkylbenzolsulfonat und 0,01 Masse% Dodezylsulfat. Der Verbrauch an Präparat beträgt 8 kg/ha bei 800 1 Wasserdurchsatz. Die Prüfergebnisse sind in der Tabelle 9 angegeben. Die gleichen Ergebnisse sind bei der Behandlung von tetraploidem Roggen Jubileinaya in der VI. Periode der Organogenese erhalten."}, "Tritikale PRAG-109": {"system": "Tritikale PRAG-109", "experiment": "Field test of gametocidal activity, triticale PRAG-109", "assay_type": "in vivo", "settings": "period V, 1% aqueous emulsion, 6 kg/ha in 600 l water; for Prozentsatz des Ansetzens von Samen bei freier Bestäubung: control = 100", "text": "as §1, §2, §3, §4, §5\nPflanzen von Tritikale PRAG-109 werden in der V.Periode der Organogenese (nach Kupermann) mit einer 1%igen wäßrigen Emulsion von 1,1,1,3-Tetrabromheptan, 1,1,3-Tribromheptan, 1,2,3-Tribrompropan bzw. 1,2-Dibrom-3-chlor- propan behandelt. Die Emulsion enthält 0,5 Masse% C12-C14--Kalziumalkylbenzolsulfonat und 0,01 Masse% Dodezylsulfat. Der Verbrauch an Präparat beträgt 6 kg/ha bei 600 1 Wasserdurchsatz. Als Kontrolle dienen Pflanzen, behandelt mit dem Verdünner ohne Sterilisationsmittel. Die Prüfergebnisse sind in der Tabelle 5 angegeben. Die gleichen Ergebnisse sind bei der Behandlung von Tritikale PRAG-109 in der VI. Periode der Organogenese erhalten."}, "[5]": {"settings": "workplace air limit; cited from earlier work"}, "[6]": {"system": "Sommerweizens Sorte Botanicheskaya 4", "experiment": "Field test of gametocidal activity, spring wheat Botanicheskaya 4", "assay_type": "in vivo, Weizen", "settings": "period V, 1% aqueous emulsion, 6 kg/ha in 600 l water; for Prozentsatz des Ansetzens von Samen bei freier Bestäubung: control = 100", "text": "as §1, §2, §3, §4, §5\nPflanzen des Sommerweizens Sorte Botanicheskaya 4 werden in der V. Periode der Organogenese (nach Kupermann) mit einer 1%igen wäßrigen Emulsion von 1,3-Dibrompropan, 1,1,1,3-Tetrabromheptan, 1,1,2-Tribromheptan bzw. 1,2--Dibromheptan behandelt. Die Emulsion enthält 0,5 Masse% C12-C14-Kalziumalkylbenzolsulfonat und 0,01 Masse% Dimethylsulfoxid als Adjuvans. Der Verbrauch an Präparat beträgt 6 kg/ha bei 600 1 Wasserdurchsatz. Als Kontrolle dienen Pflanzen, behandelt mit dem Verdünner ohne Sterilisationsmittel.\nDie Prüfergebnisse sind in der Tabelle 4 angegeben. Die gleichen Ergebnisse sind bei der Behandlung des Sommerweizens Sorte Botanicheskaya 4 in der VI. Periode der Organogenese erhalten."}, "[7]": {"settings": "0.2% aqueous emulsion, 1.2 kg/ha in 600 l water"}, "[8]": {"settings": "0.1% aqueous emulsion, 0.6 kg/ha in 600 l water"}}}
{"smiles": "BrCCC(Br)Br", "note": "[Beispiel 1, 1,1,3-Tribrompropan]", "values": [{"measurement": "pest or weed control at 1 %, 20000 g/ha", "setting": "[1]", "result": 98, "unit": "%"}, {"measurement": "LD50", "setting": "[2]", "result": 540, "unit": "mg/kg"}, {"measurement": "Kornzahl der Ähre bei freier Bestäubung", "setting": "[3]", "result": "30,1"}, {"measurement": "Kornzahl der Ähre im Isolator", "setting": "[3]", "result": "0,0"}, {"measurement": "Prozentsatz der Sterilität", "setting": "[3]", "result": "100,0%"}, {"measurement": "Prozentsatz des Ansetzens von Samen bei freier Bestäubung", "setting": "[3]", "result": "82,2%"}, {"measurement": "Ansetzen bei freier Bestäubung in %", "setting": "Sonnenblume Linie BK 119; [7]", "result": "80,4%"}, {"measurement": "Ansetzen im Isolator bei Pollengemischbestäubung in %", "setting": "Sonnenblume Linie BK 119; [7]", "result": "0,0%"}, {"measurement": "Pollenstesterilität in %", "setting": "Sonnenblume Linie BK 119; [7]", "result": "100,0%"}]}
{"smiles": "BrCC(Br)CBr", "note": "[Beispiel 4, 1,2,3-Tribrompropan]", "values": [{"measurement": "Kornzahl der Ähre bei freier Bestäubung", "setting": "[4]", "result": "47,6"}, {"measurement": "Kornzahl der Ähre unter Isolator", "setting": "[4]", "result": "0,1"}, {"measurement": "Prozentsatz der Sterilität", "setting": "[4]", "result": "99,8%"}, {"measurement": "Prozentsatz des Ansetzens Samen bei freier Bestäubung", "setting": "[4]", "result": "90,3%"}, {"measurement": "Kornzahl der Ähre bei freier Bestäubung", "setting": "Tritikale PRAG-109", "result": "40,5"}, {"measurement": "Kornzahl der Ähre im Isolator", "setting": "Tritikale PRAG-109", "result": "0,2"}, {"measurement": "Prozentsatz der Sterilität", "setting": "Tritikale PRAG-109", "result": "99,5%"}, {"measurement": "Prozentsatz des Ansetzens von Samen bei freier Bestäubung", "setting": "Tritikale PRAG-109", "result": "88,4%"}]}
{"smiles": "CC(Br)CBr", "note": "(stereo not drawn) [Beispiel 5, 1,2-Dibrompropan]", "values": [{"measurement": "Kornzahl der Ähre bei freier Bestäubung", "setting": "[4]", "result": "48,1"}, {"measurement": "Kornzahl der Ähre unter Isolator", "setting": "[4]", "result": "0,0"}, {"measurement": "Prozentsatz der Sterilität", "setting": "[4]", "result": "100,0%"}, {"measurement": "Prozentsatz des Ansetzens Samen bei freier Bestäubung", "setting": "[4]", "result": "91,2%"}, {"measurement": "Ansetzen bei freier Bestäubung in %", "setting": "Sonnenblume Linie BK 119; [7]", "result": "88,2%"}, {"measurement": "Ansetzen im Isolator bei Pollengemischbestäubung in %", "setting": "Sonnenblume Linie BK 119; [7]", "result": "0,0%"}, {"measurement": "Pollenstesterilität in %", "setting": "Sonnenblume Linie BK 119; [7]", "result": "100,0%"}, {"measurement": "maximale Arbeitsplatzkonzentration (MAK-Wert)", "setting": "[5]", "result": 5, "unit": "mg/m^3"}]}
{"smiles": "ClCC(Br)CBr", "note": "(stereo not drawn) [Beispiel 7, 1,2-Dibrom-3-chlorpropan]", "values": [{"measurement": "LD50", "setting": "[2]", "result": "~170", "unit": "mg/kg"}, {"measurement": "Kornzahl der Ähre bei freier Bestäubung", "setting": "[4]", "result": "50,2"}, {"measurement": "Kornzahl der Ähre unter Isolator", "setting": "[4]", "result": "0,4"}, {"measurement": "Prozentsatz der Sterilität", "setting": "[4]", "result": "99,2%"}, {"measurement": "Prozentsatz des Ansetzens Samen bei freier Bestäubung", "setting": "[4]", "result": "95,2%"}, {"measurement": "Ansetzen bei freier Bestäubung in %", "setting": "Sonnenblume Linie BK 119; [8]", "result": "82,0%"}, {"measurement": "Ansetzen im Isolator bei Pollengemischbestäubung in %", "setting": "Sonnenblume Linie BK 119; [8]", "result": "0,0%"}, {"measurement": "Pollenstesterilität in %", "setting": "Sonnenblume Linie BK 119; [8]", "result": "100,0%"}, {"measurement": "Kornzahl der Ähre bei freier Bestäubung", "setting": "Tritikale PRAG-109", "result": "42,6"}, {"measurement": "Kornzahl der Ähre im Isolator", "setting": "Tritikale PRAG-109", "result": "1,1"}, {"measurement": "Prozentsatz der Sterilität", "setting": "Tritikale PRAG-109", "result": "97,3%"}, {"measurement": "Prozentsatz des Ansetzens von Samen bei freier Bestäubung", "setting": "Tritikale PRAG-109", "result": "93,0%"}]}
{"smiles": "CCCCC(Br)CC(Br)(Br)Br", "note": "(stereo not drawn) [Beispiel 9, 1,1,1,3-Tetrabromheptan]", "values": [{"measurement": "Kornzahl der Ähre bei freier Bestäubung", "setting": "[6]", "result": "28,1"}, {"measurement": "Kornzahl der Ähre im Isolator", "setting": "[6]", "result": "0,0"}, {"measurement": "Prozentsatz der Sterilität", "setting": "[6]", "result": "100,0%"}, {"measurement": "Prozentsatz des Ansetzens von Samen bei freier Bestäubung", "setting": "[6]", "result": "90,9%"}, {"measurement": "Kornzahl der Ähre bei freier Bestäubung", "setting": "Tritikale PRAG-109", "result": "61,8"}, {"measurement": "Kornzahl der Ähre im Isolator", "setting": "Tritikale PRAG-109", "result": "0,0"}, {"measurement": "Prozentsatz der Sterilität", "setting": "Tritikale PRAG-109", "result": "100,0%"}, {"measurement": "Prozentsatz des Ansetzens von Samen bei freier Bestäubung", "setting": "Tritikale PRAG-109", "result": "89,6%"}]}
{"smiles": "CCCCC(Br)CC(Br)Br", "note": "(stereo not drawn) [Beispiel 10, 1,1,3-Tribromheptan]", "values": [{"measurement": "Kornzahl der Ähre bei freier Bestäubung", "setting": "Tritikale PRAG-109", "result": "59,6"}, {"measurement": "Kornzahl der Ähre im Isolator", "setting": "Tritikale PRAG-109", "result": "0,0"}, {"measurement": "Prozentsatz der Sterilität", "setting": "Tritikale PRAG-109", "result": "100,0%"}, {"measurement": "Prozentsatz des Ansetzens von Samen bei freier Bestäubung", "setting": "Tritikale PRAG-109", "result": "86,4%"}]}
{"smiles": "CCCCCC(Br)CBr", "note": "(stereo not drawn) [Beispiel 11, 1,2-Dibromheptan]", "values": [{"measurement": "Kornzahl der Ähre bei freier Bestäubung", "setting": "[6]", "result": "23,6"}, {"measurement": "Kornzahl der Ähre im Isolator", "setting": "[6]", "result": "0,0"}, {"measurement": "Prozentsatz der Sterilität", "setting": "[6]", "result": "100,0%"}, {"measurement": "Prozentsatz des Ansetzens von Samen bei freier Bestäubung", "setting": "[6]", "result": "76,4%"}, {"measurement": "Kornzahl der Ähre bei freier Bestäubung", "setting": "[3]", "result": "29,2"}, {"measurement": "Kornzahl der Ähre im Isolator", "setting": "[3]", "result": "0,0"}, {"measurement": "Prozentsatz der Sterilität", "setting": "[3]", "result": "100,0%"}, {"measurement": "Prozentsatz des Ansetzens von Samen bei freier Bestäubung", "setting": "[3]", "result": "79,8%"}]}
